Laboratory results as given in patent US7195756B2, “Control of arthropod vectors of parasitic diseases” (Centers for Disease Control and Prevention, priority 2000, dated 2007).

How the values were obtained:
[1] = test system: Ixodes scapularis; assay: Field trial Mason's Island: tick burdens on white-footed mice, fipronil-treated bait boxes; assay type: in vivo; conditions: for mean number of larvae/mouse: treated area
Method: (§1) A field trial was conducted from April to September, 1999 on Mason's Island, Mystic, Conn. […] Four sites situated in undeveloped natural areas were used as untreated controls.
(§2) Modified Protecta Jr. (Bell Laboratories, Madison, Wis.) mouse bait boxes (FIG. 2) were used in this study. The modifications were as follows: a cotton yarn wick was stapled to the underside of the lid just in front of the feeding area entry; two adsorbent nylon strips were affixed to the outer edges of the food block trays. Two Detex monitoring blocks (Bell Laboratories, Madison, Wis.) were placed in each box, 2–3 ml of fipronil topical formulation was applied to the wick and adsorbent strips with a squirt bottle, and the lid was closed and locked with a set screw prior to placement on properties. A 0.43% w/w formulation of fipronil was used in May and June and this was replaced by a 1% w/w formulation from July through September.
(§3) White-footed mice were live-trapped using 3″×3″×10″ Sherman mouse traps (Sherman Trap Co., Tallahassee, Fla.). Pre-treatment trapping was conducted in April and May and post-treatment trapping from June through September to determine: 1) distribution of mice on individual properties, 2) tick burdens on animals, and 3) spirochete infection rates in mice between treated and untreated plots. Each mouse was anesthetized, ectoparasites were removed, ear tissue was collected for spirochete culture, mice were then bled, weighed, measured, ear-tagged and released at the point of capture. In July and August cloth drags were used to collect host-seeking larval ticks for comparison with results of host-associated tick data.
(§4) Based upon pre-treatment mouse distribution and abundance data, a total of 125 bait boxes were set out on 13 residences. Boxes were spaced approximately 30 feet apart along the interface with maintained landscaping and wood lot or scrub brush. The number of boxes/property ranged from 4 to 20, depending on property size and presence of suitable mouse habitat. Initial treatment with fipronil began on May 17 and at approximate 4-week intervals each box was re-baited with 2 food blocks and the wick and strips were replenished with 2–3 ml of fipronil formulation. A record of relative use by white-footed mice was kept for each box during the trial.

[2] = test system: Borrelia burgdorferi; assay: Field trial Mason's Island: spirochete infection of white-footed mice (ear biopsy culture); assay type: in vivo
Method: as §1, §2, §3, §4
3) Impact of fipronil on the natural transmission cycle of B. burgdorferi—Individual captured mice were tested for infection with B. burgdorferi by culture of ear biopsy tissue in BSK H growth media.

[3] = test system: nymphal Ixodes scapularis; assay: Fipronil bioassay: treated laboratory mice challenged with nymphal ticks; assay type: in vivo; conditions: for % of nymphs fed to repletion: 20 μl single topical application
Method: Fipronil Bioassay: To better determine the most efficacious concentration of fipronil active ingredient for use in the bait box method of tick control, a trial was conducted using treated and untreated laboratory mice challenged with nymphal Ixodes scapularis. Individual groups of 5 mice were treated with 20 microliters (one drop) of 1%, 0.75%, 0.5% and 0.43% of fipronil topical oil formulation micropipetted between the scapulae. Five mice were used as untreated controls. Individual mice were challenged with 10 nymphs each on days 14, 28 and 42. During tick challenge mice were held over water in a triple barrier/cage system. Ticks that fed to repletion were collected from the water and used as a measurement for acaricidal activity.
4) Fipronil bioassay—A total of 25 mice and 750 nymphal I. scapularis were used in this laboratory trial. The volume of 20 microliters (one average-sized drop) was considered the smallest amount of liquid acaricide that a mouse would apply to itself on a single visit to a bait box.

[4] = test system: I. spinipalpis; assay: Field trial Larimer County, Colorado: ticks on Neotoma mexicana, treated bait boxes; assay type: in vivo, Ixodes spinipalpis; parameters: I. spinipalpis control level: concentration or dose not given beside the values; conditions: for I. spinipalpis control level: tick burdens treated vs untreated rats, FRONT LINE TOP SPOT
Method: A field trial testing fipronil (FRONT LINE TOP SPOT®) on native rodent-associated ticks was conducted in a Rocky Mountains foothills habitat in Larimer County, Colo. Treated and untreated plots consisted of 35 rat dens within 5 hectares each. A mark-release-capture study with Neotoma mexicana began in April, and captured rats were anesthetized and ticks removed, identified and quantified. The principal tick on N. mexicana is I. spinipalpis, a nidicolous, competent vector in enzootic transmission cycles in Colorado, California and Oregon. […] Fipronil was passively applied to rats as they entered and exited modified commercially available bait boxes as described in Example 1. Treated bait boxes were set out in May, left in place, and retreated and rebaited at four-week intervals through August. Collections were made at 1, 4, 8, 12 and 16 weeks post-application. N. mexicana collected in the untreated control area numbered 92 with 150 total captures resulting in 1273 fleas and ticks. In the fipronil area, 110 individual rats were collected with a total of 179 captures resulting in 416 fleas and ticks.

[5] = recaptured adult white-footed mice following fipronil treatment, chi-square p = 0.01

## N#Cc1nn(-c2c(Cl)cc(C(F)(F)F)cc2Cl)c(N)c1[S+]([O-])C(F)(F)F (stereo not drawn) [Fipronil, 5-amino-3-cyano-1-(2,6-dichloro-4-trifluoromethylphenyl)-4-trifluoromethylsulfinylpyrazole]
[1]; July and August, seven of 13 treated properties
  treated properties with host-seeking larvae present (cloth drags): 54%
[1]; course of the study, except one engorged larva in August and one larva in September
  larvae on treated mice: not present
[1]; August (untreated 9.1)
  mean number of larvae/mouse: 0.03
[1]; July (untreated 4.5)
  mean number of larvae/mouse: 0
[1]; white-footed mice, fipronil-treated area, post-treatment June-September, bait boxes 0.43% then 1% w/w
  live nymphs on mice after fipronil treatment: not found
[2]; Peromyscus leucopus, fipronil area, 164 mice, April-September 1999 (untreated 69%)
  % of spirochete-infected mice: 38%
[2]; fipronil area, 12/13 properties (untreated 100%)
  % of properties with infected mice: 92%
[2]; post-treatment period, 26 young mice (body mass <17 g), fipronil area (untreated 30% of 26)
  young mice that became infected: none
[2]; recaptured adult white-footed mice following fipronil treatment
  No. of mice + at first capture, remained +: 18
[2]; [5]
  No. of mice − at first capture, became +: 4
  No. of mice − at first capture, remained −: 14
[3]; 0.43% (85 μg/mouse), 14 days
  % of nymphs fed to repletion: 0%
[3]; 0.43% (85 μg/mouse), 28 days
  % of nymphs fed to repletion: 16%
[3]; 0.43% (85 μg/mouse), 42 days
  % of nymphs fed to repletion: 30%
[3]; 0.50% (100 μg/mouse), 14 days
  % of nymphs fed to repletion: 0%
[3]; 0.50% (100 μg/mouse), 28 days
  % of nymphs fed to repletion: 8%
[3]; 0.50% (100 μg/mouse), 42 days
  % of nymphs fed to repletion: 24%
[3]; 1.00% (200 μg/mouse), 14 days
  % of nymphs fed to repletion: 0%
[3]; 1.00% (200 μg/mouse), 28 days
  % of nymphs fed to repletion: 0%
[3]; 1.00% (200 μg/mouse), 42 days
  % of nymphs fed to repletion: 2%
[3]; 20 microliters (=150 micrograms)
  optimum concentration of fipronil to kill ticks on mice for 30 days after a single exposure: 0.75%
[4]; fipronil area, 110 rats, 179 captures (untreated: 1273 from 150 captures)
  fleas and ticks collected: 416
[4]; week 1 post-application
  I. spinipalpis control level: 25%
[4]; week 4 post-application
  I. spinipalpis control level: 90%
[4]; week 8 post-application
  I. spinipalpis control level: 75%
[4]; week 12 post-application
  I. spinipalpis control level: 97%
[4]; week 16 post-application
  I. spinipalpis control level: 93%
